Assay results: US7473790B2 (Pfizer Inc., priority 2003, dated 2009)

Biological target: T1, HCV polymerase (Hepatitis C virus genotype 1b, UniProt P26663)
T1 construct: 2.5 pmoles (0.15 μg) HCV polymerase protein in a final volume of 75 μL
Assay: HCV polymerase primer/template-directed transcription assay (32P-GTP incorporation, filter binding)
Assay type: biochemical
Conditions: for IC50: recombinant HCV polymerase, 30 minutes at 30° C., concentration giving 50% inhibition of polymerase-directed transcription, read-out: IC50
Summary of the method: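 IC50s come from triplicate cpm, refit with an enzyme-concentration (30 nM) correction when under 200 nM. Reactions ran 30 min at 30° C in Tris pH 7.2 with MgCl2, 1 μM GTP spiked with α-32P-GTP, biotin-dG12 primer and poly(rC)300 template, with 1% DMSO. Incorporated label was collected on DE filtermats and counted.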

T1 sequence (P26663 2420-3010): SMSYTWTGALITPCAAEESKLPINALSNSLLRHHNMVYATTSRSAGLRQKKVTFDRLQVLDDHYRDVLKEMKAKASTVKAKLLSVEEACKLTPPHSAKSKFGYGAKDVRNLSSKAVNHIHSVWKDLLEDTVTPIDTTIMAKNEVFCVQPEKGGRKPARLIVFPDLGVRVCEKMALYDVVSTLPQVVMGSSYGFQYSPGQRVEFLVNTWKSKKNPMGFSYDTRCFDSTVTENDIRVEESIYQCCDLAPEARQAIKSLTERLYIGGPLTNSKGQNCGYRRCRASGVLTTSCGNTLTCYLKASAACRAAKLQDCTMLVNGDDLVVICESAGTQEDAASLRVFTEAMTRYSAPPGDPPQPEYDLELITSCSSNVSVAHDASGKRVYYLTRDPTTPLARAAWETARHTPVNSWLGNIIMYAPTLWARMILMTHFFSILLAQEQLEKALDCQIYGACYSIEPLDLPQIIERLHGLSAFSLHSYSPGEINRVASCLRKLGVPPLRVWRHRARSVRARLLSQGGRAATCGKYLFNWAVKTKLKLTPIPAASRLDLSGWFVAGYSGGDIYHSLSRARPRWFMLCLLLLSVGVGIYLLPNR

SMILES | IC50 [nM] | inhibition at 50 µM (@ 50 uM compound, given where IC50 was impractical to calculate, read-out: percent inhibition) [%]
O=C1CC(=O)OC(CCc2ccc(CCO)cc2)(C2CCCC2)C1 (stereo not drawn) [A(79), 6-Cyclopentyl-6-{2-[4-(2-hydroxy-ethyl)-phenyl]-ethyl}-dihydro-pyran-2,4-dione] | 1000 | –
CCc1cc(CCC2(C3CCCC3)CC(O)=C(Cc3nc4ncc(Cl)cn4n3)C(=O)O2)ccc1O (stereo not drawn) [A(127), 3-(6-Chloro-[1,2,4]triazolo[1,5-a]pyrimidin-2-ylmethyl)-6-cyclopentyl-6-[2-(3-ethyl-4-hydroxy-phenyl)-ethyl]-4-hydroxy-5,6-dihydro-pyran-2-one] | 5 | –
COc1ccc(CCC2(C3CCCC3)CC(O)=C(Sc3nc4ccccc4n3C(C)C)C(=O)O2)cc1Cl (stereo not drawn) [C(44), 6-[2-(3-chloro-4-methoxyphenyl)ethyl]-6-cyclopentyl-4-hydroxy-3-[(1-isopropyl-1H-benzimidazol-2-yl)thio]-5,6-dihydro-2H-pyran-2-one] | 180 | –
Cn1cc(Cl)c(CC2=C(O)CC(CCc3ccc(C(C)(C)C#N)c(F)c3)(C3CCCC3)OC2=O)n1 (stereo not drawn) [A(102), 2-[4-(2-{5-[(4-chloro-1-methyl-1H-pyrazol-3-yl)methyl]-2-cyclopentyl-4-hydroxy-6-oxo-3,6-dihydro-2H-pyran-2-yl}ethyl)-2-fluorophenyl]-2-methylpropanenitrile] | 5 | –
Cc1ccc(-c2ccc(CCC3(C4CCCC4)CC(=O)CC(=O)O3)cc2F)s1 (stereo not drawn) [A(12), 6-Cyclopentyl-6-{2-[3-fluoro-4-(5-methyl-thiophen-2-yl)-phenyl]-ethyl}-dihydro-pyran-2,4-dione] | 18300 | –
O=C1CC(=O)OC(CCc2ccc(O)c(F)c2)(C2CCCC2)C1 (stereo not drawn) [A(129), 6-Cyclopentyl-6-[2-(3-fluoro-4-hydroxy-phenyl)-ethyl]-dihydro-pyran-2,4-dione] | 8900 | –
Cc1cnc2nc(CC3=C(O)CC(CCc4ccc(C5(C#N)CCCC5)c(F)c4)(C4CCCC4)OC3=O)nn2c1 (stereo not drawn) [A(190), 1-(4-{2-[2-Cyclopentyl-4-hydroxy-5-(6-methyl-[1,2,4]triazolo[1,5-a]pyrimidin-2-ylmethyl)-6-oxo-3,6-dihydro-2H-pyran-2-yl]-ethyl}-2-fluoro-phenyl)-cyclopentanecarbonitrile] | 11 | –
C=CCC1(CCc2ccc(OC)cc2)CC(=O)CC(=O)O1 (stereo not drawn) [A(26), 6-Allyl-6-[2-(4-methoxy-phenyl)-ethyl]-dihydro-pyran-2,4-dione] | – | 20
CCC(C#N)(CC)c1ccc(CCC2(C3CCCC3)CC(O)=C(Cc3nc4ncc(Cl)cn4n3)C(=O)O2)cc1F (racemic) [A(265), 2-(4-{2-[5-(6-Chloro-[1,2,4]triazolo[1,5-a]pyrimidin-2-ylmethyl)-2-cyclopentyl-4-hydroxy-6-oxo-3,6-dihydro-2H-pyran-2-yl]-ethyl}-2-fluoro-phenyl)-2-ethyl-butyronitrile] | 4 | –
CCOC(=O)c1cnc2nc(SC3=C(O)CC(CCc4cc(Cl)c(OC)cc4OC)(C4CCCC4)OC3=O)nn2c1 (stereo not drawn) [C(93), ethyl 2-({6-[2-(5-chloro-2,4-dimethoxyphenyl)ethyl]-6-cyclopentyl-4-hydroxy-2-oxo-5,6-dihydro-2H-pyran-3-yl}thio)[1,2,4]triazolo[1,5-a]pyrimidine-6-carboxylate] | 14 | –
CC(C)(C#N)c1ccc(CCC2(C3CCCC3)CC(O)=C(Cc3cn4cccnc4n3)C(=O)O2)cc1F (stereo not drawn) [A(221), 2-(4-{2-[2-cyclopentyl-4-hydroxy-5-(imidazo[1,2-a]pyrimidin-2-ylmethyl)-6-oxo-3,6-dihydro-2H-pyran-2-yl]ethyl}-2-fluorophenyl)-2-methylpropanenitrile] | 14 | –
CCc1ccc(OC)c(CCC2(C3CCCC3)CC(O)=C(Cc3nc4nc(C)cc(C)n4n3)C(=O)O2)c1 (stereo not drawn) [B(98), 6-Cyclopentyl-3-(5,7-dimethyl-[1,2,4]triazolo[1,5-a]pyrimidin-2-ylmethyl)-6-[2-(5-ethyl-2-methoxy-phenyl)-ethyl]-4-hydroxy-5,6-dihydro-pyran-2-one] | 6 | –
